Measurements from patent publication US20140294873A1, “SMALL MOLECULE SCREEN FOR INHIBITORS OF NFAT: AP-1: DNA INTERACTIONS” (CHILDREN'S MEDICAL CENTER CORPORATION, priority 2011, published 2014).
“Also recorded” adds a separate entry of the source.

T1: NFAT:DNA complex (Homo sapiens, UniProt Q13469)
T1 construct: The NFAT DBD containing a His tag was cloned into the pQE vector; His tag (MRGSHHHHHH leader) (N); made in house
T1 sequence (Q13469 with tags, fused parts or gaps): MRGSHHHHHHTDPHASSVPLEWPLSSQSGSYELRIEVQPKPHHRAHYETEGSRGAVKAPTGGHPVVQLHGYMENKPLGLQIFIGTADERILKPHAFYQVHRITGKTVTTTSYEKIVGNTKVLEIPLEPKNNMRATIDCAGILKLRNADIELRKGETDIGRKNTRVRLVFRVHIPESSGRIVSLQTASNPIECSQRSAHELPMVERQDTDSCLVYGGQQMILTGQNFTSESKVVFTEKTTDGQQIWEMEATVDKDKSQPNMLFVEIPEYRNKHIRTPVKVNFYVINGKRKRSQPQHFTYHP

T2: NFAT DNA-binding domain (NFAT-DBD) (UniProt Q13469 SEQ:15-300)
T2 chain: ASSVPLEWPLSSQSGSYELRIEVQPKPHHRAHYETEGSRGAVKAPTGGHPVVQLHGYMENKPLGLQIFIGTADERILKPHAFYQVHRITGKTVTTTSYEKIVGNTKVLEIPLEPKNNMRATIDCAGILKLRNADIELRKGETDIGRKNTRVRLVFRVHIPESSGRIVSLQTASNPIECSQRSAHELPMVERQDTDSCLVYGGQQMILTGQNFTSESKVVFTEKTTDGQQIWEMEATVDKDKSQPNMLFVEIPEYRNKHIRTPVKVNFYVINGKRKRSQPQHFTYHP

B1: ARRE2 probe, 32P (dsDNA)
DNA 1: CCTTCTGTATGAAACAAATTTTCCTCTTTG
DNA 2: CAAAGAGGAAAATTTGTTTCATACAGAAGG

What was measured:
EAE in C57BL/6 mice = assay: Passive transfer EAE with compound-treated 2D2 Th1 cells; type: in vivo, mouse
Experimental: EAE induction: CD4 T cells from 2D2 transgenic mice were activated with 0.2 μg/mL αCD3/αCD28 under Th1-polarizing conditions for 48-60 h in the presence of DMSO or compound as indicated. T cells were rested and expanded for 2 d followed by restimulation with 0.1 μg/mL αCD3/αCD28 for 24 h in the presence of DMSO or compound. Cells were resuspended in 1×PBS and injected intraperitoneally into female 8 wk old C57BL/6 mice, 1.5 million T cells per mouse. Mice were monitored for weight loss and development of disease symptoms using a standard clinical scale: 0, healthy; 1, flaccid tail; 2, ataxia/paresis of hind limbs; 3, paralysis of hind limbs; 4, tetraparalysis; 5, moribund or death W.

Foxp3 = assay: Treg-associated gene upregulation under iTreg-polarizing conditions (real time RT-PCR); type: cell-based, mouse; conditions: activation in the presence of TGFβ (iTreg polarizing)
Experimental: (§1) T cell activation assays: Mouse CD4 T cells were isolated using the Dynal CD4 T cell positive isolation kit (Invitrogen) and activated with 1 μg/mL αCD3/αCD28 for 48-60 h under non-polarizing or Th1-conditions (10 ng/mL IL-12 and 10 μg/mL αIL-4). CD4CD25+ T cells were depleted from purified CD4 T cells using a CD25 microbead MACS kit (Miltenyi Biotech), and CD4CD25− T cells were activated with αCD3/αCD28 in the presence of 3 ng/mL TGF[…] (iTreg-polarizing conditions).
(§2) Real time RT-PCR: Total RNA was isolated from cell pellets using the RNeasy kit (Qiagen) followed by first-strand synthesis using SuperScript III (Invitrogen). Synthesized cDNA was amplified using the FastStart Universal SYBRGreen Master Mix (Roche). PCR data was collected using the StepOne Plus Real-Time PCR System (Applied Biosystems) and gene expression normalized to an endogenous GAPDH control using the ΔΔCT method; primer sequences have been described elsewhere.

IL-17 in CD4 T cells = assay: IL-17 levels after compound treatment during primary Th17 differentiation; type: cell-based, mouse
[1] = tested on: IFNγ production in 2D2 CD4 T cells; assay: IFNγ production after compound treatment during Th1 activation; type: cell-based, mouse; conditions: 7.8 μM during activation under Th1 conditions, compared to DMSO
Experimental: as §1
(§3) For restimulation, T cells from primary cultures were rested for 3-4 d, washed, counted and stimulated for 4 h with 10 nM PMA and varied concentrations of ionomycin; where indicated, CsA was added to cells at a final concentration of 2 μM 20′ before activation while compounds were added 45-60′ before activation. Brefeldin A was added at 10 μg/mL for the final 2-2.5 h of stimulation. T cells were fixed with 4% paraformaldehyde, permeabilized in saponin buffer and stained for intracellular cytokines; data were collected on a FACSCalibur instrument (BD Biosciences).

[2] = tested on: proinflammatory mediator mRNA in Th1 cells; assay: Real time RT-PCR of T cells used for EAE induction; type: cell-based, mouse; conditions: for IL-2 mRNA transcript / IL-24 transcript levels / IP-10 transcript levels: compared to DMSO controls
From the text: as §2

[3] = tested on: IL-2 and TNFα production in activated CD4 T cells; assay: Intracellular cytokine FACS in restimulated CD4 T cells; type: cell-based, mouse; conditions: for inhibition of IL-2/TNFα production: restimulation with αCD3/αCD28 instead of PMA/ionomycin
Experimental: as §1, §3

NFAT:AP-1:DNA complex = target: T3, NFAT:AP-1:DNA complex (Homo sapiens, UniProt P01100+P05412+Q13469, C154S/C269S); assay: EMSA, NFAT:AP-1:DNA complex formation; type: binding; conditions: for assembly of the ternary complex: 6.25 mM compound; for inhibition of formation of the NFAT:AP-1:DNA complex: 32P end-labeled ARRE2, compound added before probe; for inhibition of NFAT:AP-1:DNA complex formation: compound in the 0-300 μM range
T3 construct: The NFAT DBD containing a His tag was cloned into the pQE vector; Fos and Jun bZIP domains (each encompassing 63 amino acids) were cloned into pETa vectors; His tag ([…] leader) (N); made in house; host or cells: E. coli Codon Plus BL21 (DE3) RIL for Fos and Jun; bacterial expression from a pQE vector for NFAT DBD
Experimental: (§4) EMSAs: Probe labeling: Annealed double-stranded ARRE2 was end-labeled using T4 polynucleotide kinase by incubating 50-100 ng DNA with 20 μCi 32P-γATP (Perkin Elmer) at 37° C. for 1 h followed by heat inactivation of the enzyme at 65° C. for 15′ and purification of radiolabeled ARRE2 using MicroSpin G-25 columns (GE Biosciences).
(§5) Binding reactions were set up in EMSA buffer (10 mM HEPES pH=7.5, 120 mM NaCl, 10% glycerol, 0.8 mg/mL BSA, 1 mM DTT) in the presence of complete protease inhibitor (Roche). Compounds CID 2740816 (1668 P02) and CID 5713461 (1661 N20) (Ryan Scientific) were resuspended in DMSO and incubated with 20 nM NFAT and 10 nM AP-1 for 10′ followed by addition of ˜2.5 nM radiolabeled ARRE2 probe. Reactions were then incubated for 30′ at room temperature and loaded on a 4% polyacrylamide gel (pre-run for 30-45′).

NFAT:DNA complex = target: T1, NFAT:DNA complex; assay: EMSA, NFAT:DNA complex; type: binding; conditions: high concentration (6.25 mM)
Experimental: as §4, §5

CD4 T cells = assay: Cytotoxicity / live cell numbers in restimulated CD4 T cells; type: cell-based, mouse; conditions: for cell numbers within the live cell gate: 4 h restimulation with compound; for cytotoxicity: at the concentrations tested
Experimental: as §3

CD69 = CD69 upregulation in restimulated CD4 T cells; type: cell-based, mouse; conditions: 4 h activation period, also at high concentrations
Experimental: as §3

[4] = target: T2, NFAT DNA-binding domain (NFAT-DBD); assay: EMSA; conditions: tags: His tag (MRGSHHHH..), pQE vector, E. coli; label: 32P 5'-end
[5] = Th1 cells treated with 7.8 μM compound, IP transfer
[6] = compared to 1668 P02- or DMSO-treated Th1 transfer groups
[7] = 10 nM PMA, ionomycin 100 nM or 300 nM
[8] = 10 nM PMA/100 nM ionomycin, 4 h

T3 sequence (P01100 with tags, fused parts or gaps C154S, one chain of several): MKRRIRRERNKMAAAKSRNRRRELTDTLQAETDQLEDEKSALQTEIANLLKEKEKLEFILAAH
T3 sequence (P05412 with tags, fused parts or gaps C269S, one chain of several): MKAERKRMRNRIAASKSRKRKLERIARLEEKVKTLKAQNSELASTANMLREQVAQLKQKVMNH

Row | Molecule | upregulation of Treg-associated genes, notably Foxp3 (Foxp3) | IL-17 levels upon restimulation (IL-17 in CD4 T cells) | levels of IFNγ production [1] | IL-2 mRNA transcript [2] | IL-24 transcript levels [2] | IP-10 transcript levels [2] | inhibition of IL-2 and TNFα production [3, 8] | inhibition of IL-2 and TNFα production ([3]; 10 nM PMA/500 nM ionomycin) | inhibition of IL-2/TNFα production [3] | assembly of the ternary complex (NFAT:AP-1:DNA complex) | inhibition of formation of the NFAT:AP-1:DNA complex (NFAT:AP-1:DNA complex) | inhibition of NFAT:AP-1:DNA complex formation (NFAT:AP-1:DNA complex) | effect on the NFAT:DNA complex (NFAT:DNA complex) | cell numbers within the live cell gate (CD4 T cells) | cytotoxicity (CD4 T cells) | upregulation of CD69 (CD69) | also measured
1 | N#C/C(=N/Nc1ccc2c(c1)OCO2)C(=O)N1CCCC1 [1661 N20] | did not affect | remained unchanged | slight decrease | highly significant reduction | remained unchanged | actually higher | inhibit production | inhibitory | acute inhibition | almost abrogate | modestly inhibit | modest inhibition | unaffected; also recorded: neither compound had an inhibitory effect | no apparent change; also recorded: unchanged | neither compound appeared to be cytotoxic | not affected; also recorded: unaffected | kinetics of disease development (EAE in C57BL/6 mice; [5]): clearly delayed kinetics; severity of clinical symptoms of EAE (EAE in C57BL/6 mice; [5]): reduced severity; also recorded: decreased severity; mean clinical score (EAE in C57BL/6 mice; [6]): significantly lower; percentage weight loss (EAE in C57BL/6 mice; [6]): significantly lower; GM-CSF transcript levels ([2]; relative to DMSO controls): significantly reduced; levels of IFNγ mRNA ([2]; relative to DMSO controls): significantly reduced; reduction in MFI of IL-2 [3, 7]: ≤ 50%; reduction in MFI of TNFα [3, 7]: ≤ 50%
2 | O=C1CCCC(=O)C1=NNc1cc(C(F)(F)F)ccc1OCC(F)(F)F [1668 P02] | did not affect | remained unchanged | slight decrease | not statistically significant | remained unchanged | actually higher | inhibit production | to a lesser extent | acute inhibition | almost abrogate | modestly inhibit | modest inhibition | unaffected; also recorded: neither compound had an inhibitory effect | no apparent change; also recorded: unchanged | neither compound appeared to be cytotoxic | not affected; also recorded: unaffected | disease curve relative to DMSO-treated Th1 transfer group (EAE in C57BL/6 mice; Th1 cells treated with compound, IP transfer): overlapping disease curves
3 | B1 | – | – | – | – | – | – | – | – | – | – | – | – | – | – | – | – | binding result [4]: binds
